According to the supplement of paper PMC10307832:

What was measured:
Experiment in all cases: relative viability (nuclei count vs DMSO), 5 days (fraction); higher = more cells survive
MK-8033 + Tozasertib = compound: Cn1cc(-c2cnc3ccc4ccc(CS(=O)(=O)NCc5ccccn5)cc4c(=O)c3c2)cn1 [MK-8033] + Cc1cc(Nc2cc(N3CCN(C)CC3)nc(Sc3ccc(NC(=O)C4CC4)cc3)n2)n[nH]1 [Tozasertib] (partner 0.1 µM)
How it was run: (§1)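 Cells from lung cancer lines were seeded into 1536-well plates and, one day later, dosed by pin tool. Treatments were either a single drug or a fixed dose of an anchor drug with five library-drug doses (not always all listed) in √10 steps. After 5 days, nuclei were stained in a one-step fixation (final 0.05% Triton X-100, 1% formaldehyde, 1 ug/ml Hoechst) and counted on 4× images, and relative viability is the treated-to-vehicle nuclei ratio, as the median of duplicate plates.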

RU-SKI 43 + Pemetrexed = compound: CC[C@@H](C)CNCC(=O)N1CCC2=C([C@@H]1COC3=CC=CC(=C3)C)C=CS2 [RU-SKI 43] + Nc1nc2[nH]cc(CCc3ccc(C(=O)N[C@@H](CCC(=O)O)C(=O)O)cc3)c2c(=O)[nH]1 [Pemetrexed] (partner 0.2 µM)
How it was run: as §1

RU-SKI 43 + Vorinostat = compound: CC[C@@H](C)CNCC(=O)N1CCC2=C([C@@H]1COC3=CC=CC(=C3)C)C=CS2 [RU-SKI 43] + O=C(CCCCCCC(=O)Nc1ccccc1)NO [Vorinostat] (partner 1 µM)
How it was run: as §1

MK-8033 + Olaparib = compound: Cn1cc(-c2cnc3ccc4ccc(CS(=O)(=O)NCc5ccccn5)cc4c(=O)c3c2)cn1 [MK-8033] + O=C(c1cc(Cc2n[nH]c(=O)c3ccccc23)ccc1F)N1CCN(C(=O)C2CC2)CC1 [Olaparib] (partner 8 µM)
How it was run: as §1

Cell Line | relative viability (MK-8033 + Tozasertib; first compound 0.02 µM) | relative viability (MK-8033 + Tozasertib; first compound 0.06325 µM) | relative viability (MK-8033 + Tozasertib; first compound 0.2 µM) | relative viability (MK-8033 + Tozasertib; first compound 0.6325 µM) | relative viability (MK-8033 + Tozasertib; first compound 2 µM) | relative viability (RU-SKI 43 + Pemetrexed; first compound 0.1 µM) | relative viability (RU-SKI 43 + Pemetrexed; first compound 0.3162 µM) | relative viability (RU-SKI 43 + Pemetrexed; first compound 1 µM) | relative viability (RU-SKI 43 + Pemetrexed; first compound 3.162 µM) | relative viability (RU-SKI 43 + Pemetrexed; first compound 10 µM) | relative viability (RU-SKI 43 + Vorinostat; first compound 0.1 µM) | relative viability (RU-SKI 43 + Vorinostat; first compound 0.3162 µM) | relative viability (RU-SKI 43 + Vorinostat; first compound 1 µM) | relative viability (RU-SKI 43 + Vorinostat; first compound 3.162 µM) | relative viability (RU-SKI 43 + Vorinostat; first compound 10 µM) | relative viability (MK-8033 + Olaparib; first compound 0.02 µM) | relative viability (MK-8033 + Olaparib; first compound 0.06325 µM) | relative viability (MK-8033 + Olaparib; first compound 0.2 µM) | relative viability (MK-8033 + Olaparib; first compound 0.6325 µM) | relative viability (MK-8033 + Olaparib; first compound 2 µM)
NCI-H2405 | 0.735 | 0.726 | 0.724 | 0.734 | 0.789 | 1.16 | 1.14 | 1.11 | 1.21 | 1.13 | 1.1 | 1.11 | 1.18 | 1.02 | 1 | 0.832 | 0.881 | 0.868 | 0.913 | 0.876
NCI-H2342 | 0.571 | 0.475 | 0.485 | 0.377 | 0.53 | 0.757 |  | 0.831 | 0.812 | 0.711 | 0.724 |  | 0.718 | 0.884 | 0.716 | 0.448 | 0.393 | 0.507 | 0.424 | 0.418
A-427 | 0.225 | 0.213 | 0.209 | 0.17 | 0.194 | 1.02 | 0.948 | 1.15 | 1.04 | 0.995 | 0.868 | 0.823 | 0.933 | 0.873 | 0.786 | 0.778 | 0.722 | 0.623 | 0.818 | 0.676
LCLC-97TM1 | 0.2 | 0.237 | 0.241 | 0.223 | 0.216 | 0.188 | 0.175 | 0.19 | 0.184 | 0.178 | 0.741 | 0.705 | 0.823 | 0.629 | 0.669 | 0.346 | 0.387 |  | 0.406 | 0.256
NCI-H3122 | 0.53 | 0.374 | 0.383 | 0.369 | 0.323 | 0.202 | 0.216 | 0.198 | 0.193 | 0.19 | 1.06 | 1.36 | 1.04 | 0.467 | 1.06 | 0.576 | 0.662 | 0.618 | 0.572 | 0.589
RERF-LC-KJ | 0.493 | 0.485 | 0.457 | 0.393 | 0.408 | 0.48 | 0.462 | 0.508 | 0.457 | 0.482 | 0.695 | 0.699 | 0.654 | 0.702 | 0.546 | 1.03 | 0.973 | 0.884 | 0.899 | 0.882
NCI-H2170 | 0.662 | 0.702 | 0.634 | 0.695 | 0.628 | 0.251 | 0.297 | 0.262 | 0.275 | 0.243 | 0.831 | 1.06 | 0.763 | 0.843 | 0.889 | 0.602 | 0.539 | 0.648 | 0.59 | 0.536
HCC-44 | 0.886 | 0.837 | 0.771 | 0.729 | 0.813 | 0.624 | 0.652 | 0.639 | 0.721 | 0.69 | 1.14 | 1.12 | 1.12 | 1.15 | 1.05 | 1 | 1.06 | 0.931 | 1.01 | 0.975
HCC-15 | 0.498 | 0.3 | 0.35 | 0.427 | 0.352 | 0.215 | 0.229 | 0.241 | 0.217 | 0.2 | 0.808 | 0.932 | 0.881 | 0.839 | 0.869 | 0.807 | 0.611 | 0.737 | 0.67 | 0.529
NCI-H522 | 0.606 | 0.477 | 0.53 | 0.496 | 0.599 | 1.26 | 0.966 | 1.18 | 1.02 | 1.16 | 0.88 | 0.803 | 1.01 | 0.941 | 0.932 | 0.544 | 0.491 | 0.607 | 0.685 | 0.632
SK-LU-1 | 0.328 | 0.35 | 0.304 | 0.327 | 0.312 | 0.969 | 1.16 | 1.07 | 1.04 | 0.939 | 0.738 | 0.893 | 0.882 | 0.795 | 0.775 | 0.435 | 0.471 | 0.426 | 0.497 | 0.394
NCI-H1793 | 0.332 | 0.325 | 0.34 | 0.416 | 0.23 | 1.01 | 0.995 | 0.941 | 0.772 | 1.02 | 0.799 | 0.742 | 0.872 | 0.792 | 0.602 | 0.863 |  | 0.688 | 0.894 | 0.94
H3255 | 0.581 | 0.501 | 0.554 | 0.609 | 0.602 | 0.554 | 0.61 | 0.571 | 0.555 | 0.595 | 0.838 | 0.763 | 1.1 | 0.851 | 0.769 | 0.567 | 0.504 | 0.561 | 0.57 | 0.537
NCI-H1666 | 0.588 | 0.587 | 0.589 | 0.648 | 0.614 | 0.864 | 0.914 | 0.901 | 0.815 | 0.844 | 0.953 | 1.08 | 1.13 | 0.997 | 0.799 | 0.755 | 0.683 | 0.659 | 0.82 | 0.774
201T | 0.864 | 0.899 | 0.82 | 0.909 | 0.86 | 0.374 | 0.311 | 0.307 | 0.358 | 0.321 | 0.968 | 1.17 | 1.09 | 1.06 | 0.957 | 0.873 | 0.824 | 0.832 | 0.82 | 0.822
LK-2 | 0.174 |  | 0.179 | 0.182 | 0.198 | 0.362 | 0.343 | 0.347 | 0.245 | 0.304 | 0.294 | 0.265 | 0.363 | 0.301 | 0.224 | 0.974 | 0.694 | 0.765 | 0.678 | 0.81
